Measured values taken from ChEMBL document CHEMBL4800732, “Data for DCP probe TP-040” (2021).
Where “and” joins values, the source holds several entries; their conditions need not be identical. Equal values may be shown once.

Assays:
[1] = molecular target: T1, 5-hydroxytryptamine receptor 2A (Homo sapiens, UniProt P28223); assay: GPCRScan assay: inhibition of 5-HT2A; design: radioligand conc. used [nm] 1.2 – 2.4, parental cells HEKT
[2] = molecular target: 5-hydroxytryptamine receptor 5A (Homo sapiens, UniProt P47898); assay: GPCRScan assay: inhibition of 5-HT5A; design: radioligand conc. used [nm] 2.0 - 3.3, parental cells Flp-In CHO
[3] = molecular target: 5-hydroxytryptamine receptor 6 (Homo sapiens, UniProt P50406); assay: GPCRScan assay: inhibition of 5-HT6; design: radioligand conc. used [nm] 2.0 – 4.0, parental cells stable HEK
[4] = molecular target: T2, 5-hydroxytryptamine receptor 7 (Homo sapiens, UniProt P34969); assay: GPCRScan assay: inhibition of 5-HT7A; design: radioligand conc. used [nm] 5.0 – 6.0, parental cells Stable HEK
[5] = molecular target: Sodium-dependent dopamine transporter (Homo sapiens, UniProt Q01959); assay: GPCRScan assay: inhibition of DAT; design: radioligand conc. used [nm] 3.6 – 16.0, parental cells stable HEK
[6] = molecular target: Histamine H2 receptor (Homo sapiens, UniProt P25021); assay: GPCRScan assay: inhibition of H2; design: radioligand conc. used [nm] 0.02 – 0.05, parental cells Stable HEK
[7] = molecular target: Histamine H3 receptor (Homo sapiens, UniProt Q9Y5N1); assay: GPCRScan assay: inhibition of H3; design: radioligand conc. used [nm] 0.5 – 1.0, parental cells HEK Flp-In
[8] = molecular target: T3, Histamine H4 receptor (Homo sapiens, UniProt Q9H3N8); assay: GPCRScan assay: inhibition of H4; design: radioligand conc. used [nm] 1.0 – 5.0, parental cells HEK T
[9] = molecular target: T4, Alpha-2C adrenergic receptor (Homo sapiens, UniProt P18825); assay: GPCRScan assay: inhibition of Alpha2C; design: radioligand conc. used [nm] 0.5 – 1.0, parental cells stable MDCK
T4 sequence (P18825 whole entry): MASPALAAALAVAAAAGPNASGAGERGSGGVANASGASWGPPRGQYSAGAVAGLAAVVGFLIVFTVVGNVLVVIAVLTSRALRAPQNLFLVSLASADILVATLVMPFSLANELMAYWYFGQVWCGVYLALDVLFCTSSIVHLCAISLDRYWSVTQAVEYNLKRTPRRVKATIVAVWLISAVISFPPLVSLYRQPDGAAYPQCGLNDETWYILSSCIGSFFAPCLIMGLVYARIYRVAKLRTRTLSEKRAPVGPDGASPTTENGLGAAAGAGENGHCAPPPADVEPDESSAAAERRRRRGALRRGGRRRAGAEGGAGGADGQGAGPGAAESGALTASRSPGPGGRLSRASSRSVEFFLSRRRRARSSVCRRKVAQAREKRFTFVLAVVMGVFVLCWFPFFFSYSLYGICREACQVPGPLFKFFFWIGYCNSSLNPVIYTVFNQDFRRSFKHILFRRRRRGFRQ

[10] = molecular target: T5, Sigma intracellular receptor 2 (Homo sapiens, UniProt Q5BJF2); assay: GPCRScan assay: inhibition of Sigma 2; design: radioligand conc. used [nm] 5.0, parental cells HEKT
[11] = molecular target: T6, Sigma non-opioid intracellular receptor 1 (Homo sapiens, UniProt Q99720); assay: GPCRScan assay: inhibition of Sigma 1; design: radioligand conc. used [nm] 4.0 – 5.0, parental cells HEKT
[12] = molecular target: Protein O-GlcNAcase (Homo sapiens, UniProt O60502); assay: Enzymatic OGA assay
[13] = molecular target: 5-hydroxytryptamine receptor 1D (Homo sapiens, UniProt P28221); details: Compound concentration 10.0 uM
[14] = molecular target: 5-hydroxytryptamine receptor 1E (Homo sapiens) (UniProt P28566); details: Compound concentration 10.0 uM
[15] = molecular target: T1, 5-hydroxytryptamine receptor 2A; details: Compound concentration 10.0 uM
[16] = molecular target: T2, 5-hydroxytryptamine receptor 7; details: Compound concentration 10.0 uM
[17] = molecular target: D(1A) dopamine receptor (Homo sapiens) (UniProt P21728); details: Compound concentration 10.0 uM
[18] = molecular target: D(3) dopamine receptor (Homo sapiens) (UniProt P35462); details: Compound concentration 10.0 uM
[19] = molecular target: Kappa-type opioid receptor (Homo sapiens) (UniProt P41145); details: Compound concentration 10.0 uM
[20] = molecular target: GABA-A receptor; anion channel (Rattus norvegicus) (UniProt O09028+P15431+P18506+P18508+P19969+P20236+P23574+P23576+P28471+P28473+P30191+P62813+P63079+P63138+Q91ZM7+Q9ES14); details: Compound concentration 10.0 uM
[21] = molecular target: T3, Histamine H4 receptor; details: Compound concentration 10.0 uM
[22] = molecular target: Alpha-1A adrenergic receptor (Homo sapiens) (UniProt P35348); details: Compound concentration 10.0 uM
[23] = molecular target: Alpha-2A adrenergic receptor (Homo sapiens) (UniProt P08913); details: Compound concentration 10.0 uM
[24] = molecular target: Alpha-2C adrenergic receptor (Homo sapiens) (UniProt P18825); details: Compound concentration 10.0 uM
[25] = molecular target: Muscarinic acetylcholine receptor M1 (Homo sapiens) (UniProt P11229); details: Compound concentration 10.0 uM
[26] = molecular target: Muscarinic acetylcholine receptor M2 (Homo sapiens) (UniProt P08172); details: Compound concentration 10.0 uM
[27] = molecular target: Muscarinic acetylcholine receptor M4 (Homo sapiens) (UniProt P08173); details: Compound concentration 10.0 uM
[28] = molecular target: Muscarinic acetylcholine receptor M5 (Homo sapiens) (UniProt P08912); details: Compound concentration 10.0 uM
[29] = molecular target: Beta-3 adrenergic receptor (Homo sapiens) (UniProt P13945); details: Compound concentration 10.0 uM
[30] = species: Rattus norvegicus; details: Compound concentration 10.0 uM
[31] = molecular target: T5, Sigma intracellular receptor 2; details: Compound concentration 10.0 uM
[32] = molecular target: T6, Sigma non-opioid intracellular receptor 1; details: Compound concentration 10.0 uM
[33] = molecular target: GABA-A receptor; anion channel; assay: GPCRScan assay: inhibition of GABAA/BZP; assay type: protein-complex assay, Rattus norvegicus; design: radioligand conc. used [nm] 0.6 – 4.0, parental cells brain tissue
[34] = molecular target: Beta-hexosaminidase subunit beta (Homo sapiens, UniProt P07686); assay: Enzymatic HEXB assay
[35] = molecular target: D(1B) dopamine receptor (Homo sapiens) (UniProt P21918); details: Compound concentration 10.0 uM

T5 sequence (Q5BJF2 whole entry): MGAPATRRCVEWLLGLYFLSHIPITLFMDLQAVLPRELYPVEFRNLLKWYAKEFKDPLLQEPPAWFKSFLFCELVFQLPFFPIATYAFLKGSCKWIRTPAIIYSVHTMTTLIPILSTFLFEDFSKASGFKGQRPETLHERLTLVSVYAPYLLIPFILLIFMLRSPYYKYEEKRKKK
Chain of Histamine H3 receptor (Q9Y5N1 whole entry): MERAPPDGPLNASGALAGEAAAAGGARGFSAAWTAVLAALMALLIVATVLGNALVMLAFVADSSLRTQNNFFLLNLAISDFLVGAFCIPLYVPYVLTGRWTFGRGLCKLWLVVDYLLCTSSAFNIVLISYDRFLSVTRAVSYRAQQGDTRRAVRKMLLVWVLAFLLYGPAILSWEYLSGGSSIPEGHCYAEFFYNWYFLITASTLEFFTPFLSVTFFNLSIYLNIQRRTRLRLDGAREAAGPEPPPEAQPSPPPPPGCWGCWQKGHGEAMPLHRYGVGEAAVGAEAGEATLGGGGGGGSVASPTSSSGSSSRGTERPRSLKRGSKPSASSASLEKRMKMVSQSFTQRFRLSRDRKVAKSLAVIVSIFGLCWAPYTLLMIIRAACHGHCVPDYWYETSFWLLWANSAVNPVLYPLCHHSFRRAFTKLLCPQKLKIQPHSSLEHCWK
T3 sequence (Q9H3N8 whole entry): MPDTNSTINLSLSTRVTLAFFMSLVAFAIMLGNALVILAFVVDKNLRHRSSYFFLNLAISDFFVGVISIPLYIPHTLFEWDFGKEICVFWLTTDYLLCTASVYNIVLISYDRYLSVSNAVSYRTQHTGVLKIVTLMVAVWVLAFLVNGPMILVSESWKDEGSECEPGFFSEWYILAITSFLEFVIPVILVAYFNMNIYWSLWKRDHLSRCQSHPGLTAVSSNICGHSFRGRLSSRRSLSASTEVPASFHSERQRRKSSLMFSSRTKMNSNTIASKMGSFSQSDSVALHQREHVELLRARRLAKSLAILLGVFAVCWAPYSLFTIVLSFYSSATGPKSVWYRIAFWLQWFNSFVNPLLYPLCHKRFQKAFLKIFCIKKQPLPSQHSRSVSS
T6 sequence (Q99720 whole entry): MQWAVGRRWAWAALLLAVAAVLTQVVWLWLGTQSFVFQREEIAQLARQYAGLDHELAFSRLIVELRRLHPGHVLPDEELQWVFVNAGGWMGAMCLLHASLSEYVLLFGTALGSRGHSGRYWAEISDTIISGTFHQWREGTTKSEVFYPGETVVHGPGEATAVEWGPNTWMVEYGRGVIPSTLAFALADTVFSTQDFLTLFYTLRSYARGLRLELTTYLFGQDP
T2 sequence (P34969 whole entry): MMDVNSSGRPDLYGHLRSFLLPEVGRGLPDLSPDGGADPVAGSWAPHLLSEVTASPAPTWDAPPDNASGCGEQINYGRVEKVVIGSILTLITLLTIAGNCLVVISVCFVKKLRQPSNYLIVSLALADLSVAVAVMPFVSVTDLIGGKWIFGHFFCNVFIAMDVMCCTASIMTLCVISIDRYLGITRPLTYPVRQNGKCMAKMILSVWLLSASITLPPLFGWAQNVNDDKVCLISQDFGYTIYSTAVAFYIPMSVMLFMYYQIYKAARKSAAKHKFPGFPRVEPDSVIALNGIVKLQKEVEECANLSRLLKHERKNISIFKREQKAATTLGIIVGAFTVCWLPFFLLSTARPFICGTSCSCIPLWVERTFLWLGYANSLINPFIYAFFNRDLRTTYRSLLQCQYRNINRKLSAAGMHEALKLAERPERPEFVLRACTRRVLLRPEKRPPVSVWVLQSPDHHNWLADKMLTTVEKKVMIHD
T1 sequence (P28223 whole entry): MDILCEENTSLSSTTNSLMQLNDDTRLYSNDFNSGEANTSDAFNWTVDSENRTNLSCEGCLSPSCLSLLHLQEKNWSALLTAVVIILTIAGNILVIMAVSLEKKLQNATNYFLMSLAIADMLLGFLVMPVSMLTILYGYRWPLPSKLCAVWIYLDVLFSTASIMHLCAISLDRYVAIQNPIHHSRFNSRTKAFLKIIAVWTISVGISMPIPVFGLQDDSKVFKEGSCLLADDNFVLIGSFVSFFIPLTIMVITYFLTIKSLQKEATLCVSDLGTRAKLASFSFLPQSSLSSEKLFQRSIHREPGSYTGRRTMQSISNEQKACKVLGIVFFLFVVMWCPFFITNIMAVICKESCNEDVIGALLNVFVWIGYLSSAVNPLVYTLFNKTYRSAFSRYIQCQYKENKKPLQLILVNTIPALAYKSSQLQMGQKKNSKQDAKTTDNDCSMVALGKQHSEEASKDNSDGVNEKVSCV
Chain of Kappa-type opioid receptor (Homo sapiens) (P41145 whole entry): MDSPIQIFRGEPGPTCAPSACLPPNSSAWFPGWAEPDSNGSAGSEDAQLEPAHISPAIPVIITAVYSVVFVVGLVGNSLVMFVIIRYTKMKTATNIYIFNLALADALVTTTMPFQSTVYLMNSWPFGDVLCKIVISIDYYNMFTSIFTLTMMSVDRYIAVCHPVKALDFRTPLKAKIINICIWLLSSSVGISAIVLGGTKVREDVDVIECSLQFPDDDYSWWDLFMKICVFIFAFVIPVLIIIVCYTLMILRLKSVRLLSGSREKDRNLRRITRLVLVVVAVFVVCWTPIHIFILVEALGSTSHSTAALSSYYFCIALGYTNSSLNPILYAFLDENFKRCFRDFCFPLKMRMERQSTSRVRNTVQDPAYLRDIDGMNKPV
Chain of Muscarinic acetylcholine receptor M5 (Homo sapiens) (P08912 whole entry): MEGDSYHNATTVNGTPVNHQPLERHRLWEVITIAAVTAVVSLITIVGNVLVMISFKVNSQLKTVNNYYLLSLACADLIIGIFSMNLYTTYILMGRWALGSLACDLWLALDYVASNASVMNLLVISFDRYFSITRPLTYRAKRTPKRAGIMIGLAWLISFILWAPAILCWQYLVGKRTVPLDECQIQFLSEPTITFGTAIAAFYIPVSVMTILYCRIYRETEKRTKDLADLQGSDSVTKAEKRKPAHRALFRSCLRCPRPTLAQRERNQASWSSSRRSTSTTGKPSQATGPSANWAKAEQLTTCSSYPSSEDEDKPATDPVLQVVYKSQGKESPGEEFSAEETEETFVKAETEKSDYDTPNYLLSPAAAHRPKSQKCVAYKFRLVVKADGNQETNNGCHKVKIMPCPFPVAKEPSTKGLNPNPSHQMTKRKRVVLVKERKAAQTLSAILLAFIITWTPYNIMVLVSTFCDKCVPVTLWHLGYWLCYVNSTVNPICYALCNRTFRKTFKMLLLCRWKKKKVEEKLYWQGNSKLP
Chain of D(1A) dopamine receptor (Homo sapiens) (P21728 whole entry): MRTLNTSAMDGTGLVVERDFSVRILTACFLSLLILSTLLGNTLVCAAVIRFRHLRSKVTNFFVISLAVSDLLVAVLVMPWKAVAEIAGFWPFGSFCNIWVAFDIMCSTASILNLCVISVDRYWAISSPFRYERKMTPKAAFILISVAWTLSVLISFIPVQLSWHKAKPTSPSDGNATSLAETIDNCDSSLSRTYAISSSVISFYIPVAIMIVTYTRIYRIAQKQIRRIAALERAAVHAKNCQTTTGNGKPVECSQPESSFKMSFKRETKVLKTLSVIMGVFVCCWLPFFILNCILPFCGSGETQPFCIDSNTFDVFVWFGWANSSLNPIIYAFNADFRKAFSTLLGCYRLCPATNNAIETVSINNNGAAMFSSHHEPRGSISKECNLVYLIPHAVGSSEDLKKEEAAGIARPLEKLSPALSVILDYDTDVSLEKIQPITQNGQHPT
Chain of Muscarinic acetylcholine receptor M1 (Homo sapiens) (P11229 whole entry): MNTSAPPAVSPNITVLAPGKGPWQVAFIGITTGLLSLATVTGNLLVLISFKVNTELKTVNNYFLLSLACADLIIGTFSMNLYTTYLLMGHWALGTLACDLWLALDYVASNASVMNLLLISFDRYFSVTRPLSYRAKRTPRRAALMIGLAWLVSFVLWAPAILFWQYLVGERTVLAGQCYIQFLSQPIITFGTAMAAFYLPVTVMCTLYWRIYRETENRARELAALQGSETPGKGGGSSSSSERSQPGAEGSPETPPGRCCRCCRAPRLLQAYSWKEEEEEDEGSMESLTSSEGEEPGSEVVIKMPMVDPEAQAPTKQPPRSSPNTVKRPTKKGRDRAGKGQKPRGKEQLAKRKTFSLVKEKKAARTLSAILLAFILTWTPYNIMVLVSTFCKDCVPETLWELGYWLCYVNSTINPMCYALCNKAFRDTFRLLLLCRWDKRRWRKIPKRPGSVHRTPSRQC
Chain of Alpha-1A adrenergic receptor (Homo sapiens) (P35348 whole entry): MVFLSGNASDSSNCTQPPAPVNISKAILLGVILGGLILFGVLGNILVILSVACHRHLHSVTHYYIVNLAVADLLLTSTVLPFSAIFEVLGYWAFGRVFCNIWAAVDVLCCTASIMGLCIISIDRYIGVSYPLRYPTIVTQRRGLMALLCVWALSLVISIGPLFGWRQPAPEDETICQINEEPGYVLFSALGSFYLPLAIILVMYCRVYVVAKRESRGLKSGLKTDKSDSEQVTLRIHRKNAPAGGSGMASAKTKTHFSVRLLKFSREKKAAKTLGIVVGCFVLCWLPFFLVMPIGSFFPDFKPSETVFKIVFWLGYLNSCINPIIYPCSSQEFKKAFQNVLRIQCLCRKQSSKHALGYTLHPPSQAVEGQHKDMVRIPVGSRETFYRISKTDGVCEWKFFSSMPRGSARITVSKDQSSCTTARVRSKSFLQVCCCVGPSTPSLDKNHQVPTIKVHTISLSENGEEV
Chain of 5-hydroxytryptamine receptor 5A (P47898 whole entry): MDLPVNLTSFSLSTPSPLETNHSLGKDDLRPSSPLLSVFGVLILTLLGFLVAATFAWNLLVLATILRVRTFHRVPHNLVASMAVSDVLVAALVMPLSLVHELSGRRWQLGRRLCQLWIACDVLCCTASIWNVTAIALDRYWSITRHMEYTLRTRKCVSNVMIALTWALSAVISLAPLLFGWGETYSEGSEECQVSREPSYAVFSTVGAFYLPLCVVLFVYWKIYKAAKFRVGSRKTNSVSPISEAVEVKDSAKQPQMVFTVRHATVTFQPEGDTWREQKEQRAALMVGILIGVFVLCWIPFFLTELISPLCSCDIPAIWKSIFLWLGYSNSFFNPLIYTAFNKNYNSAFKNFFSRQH

`CN1CCN(c2ccnc(NCCc3ccccc3)n2)CC1` [TP-040n] gave a Ki ([1]; read-out: Ki) of 0.758 µM, a Ki ([1]; read-out: pKi (converted)) of 0.692 µM and a Ki ([2]; read-out: Ki) of 6.13 µM. The Ki ([2]; read-out: pKi (converted)) was 5.13 µM, the Ki [3] was 0.606 µM and the Ki [4] was 0.335 µM. The Ki ([5]; read-out: Ki) was 0.865 µM, the Ki ([5]; read-out: pKi (converted)) was 0.832 µM and the Ki ([6]; read-out: Ki) was 0.149 µM. The Ki ([6]; read-out: pKi (converted)) was 0.145 µM, the Ki ([7]; read-out: Ki) was 0.0928 µM and 0.0996 µM and the Ki ([7]; read-out: pKi (converted)) was 0.0813 µM. The Ki ([8]; read-out: Ki) was 0.712 µM and 0.703 µM, the Ki ([8]; read-out: pKi (converted)) was 0.692 µM and the Ki ([9]; read-out: Ki) was 0.414 µM. The Ki ([9]; read-out: pKi (converted)) was 0.407 µM, the Ki ([10]; read-out: Ki) was 1.46 µM and the Ki ([10]; read-out: pKi (converted)) was 1.45 µM. For the same compound, the Ki ([11]; read-out: Ki) was 0.125 µM, the Ki ([11]; read-out: pKi (converted)) was 0.123 µM and the IC50 [12] was > 10 µM (not active). For the same compound, the inhibition [13] was 53.2%, the inhibition [14] was 19.5% and the inhibition [15] was 72.9%. It also gave an inhibition [16] of 92.4%, an inhibition [17] of 26.5% and an inhibition [18] of 22.6%. It also gave an inhibition [19] of 23.7%, an inhibition [20] of 34.6% and an inhibition [21] of 82.8%. The inhibition [22] was 19.2%, the inhibition [23] was 34.6% and the inhibition [24] was 96.8%. The inhibition [25] was 18.6%, the inhibition [26] was -1.51% and the inhibition [27] was 25.9%. For the same compound, the inhibition [28] was 6.46%, the inhibition [29] was 2.45% and the inhibition [30] was -0.34%. For the same compound, the inhibition [31] was 77.2% and the inhibition [32] was 98.8%.
For `CC1CCN(c2ccnc(NCc3cn(C)cn3)n2)CC1` [TP-040], the Ki ([9]; read-out: Ki) was 3.43 µM, the Ki ([9]; read-out: pKi (converted)) was 3.39 µM and the Ki [33] was 0.512 µM. For the same compound, the IC50 [34] was > 10 µM (not active), the inhibition [13] was 81.9% and the inhibition [14] was 3.36%. The inhibition [15] was 33.8%, the inhibition [16] was 34.6% and the inhibition [17] was -8.84%. For the same compound, the inhibition [18] was 47%, the inhibition [35] was 5.03% and the inhibition [19] was 36.6%. The inhibition [20] was 2.33%, the inhibition [22] was 15.4% and the inhibition [23] was 12.8%. The inhibition [24] was 51.8%, the inhibition [25] was 17.2% and the inhibition [26] was 7.21%. It also gave an inhibition [27] of 20.6%, an inhibition [28] of 25.1% and an inhibition [30] of 17.9%. The inhibition [31] was 33.6% and the inhibition [32] was 36.6%.
